The target of one experiment is T1, MDM2 (Homo sapiens, UniProt Q00987).
T1 construct: made in house
Briefly: Inhibition test of MDM2-P53 (GST-MDM2, Biotin-P53, Anti-GST-Tb, SA-XL665). The format is binding. A digest of the protocol: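 Binding was measured by TR-FRET with GST-MDM2 at 4 nM final in PBS with 0.1% BSA, 5 mM DTT and 1 mM AEBSF. Compounds were tested as twelve-point 5-fold dilutions and incubated with the detection mix for 90 min at 25 °C with shaking before plate-reader reading and curve fitting.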

The test system of experiment [1] is human osteosarcoma cell line SJSA-1. The experiment in a line: Inhibition of proliferation of human osteosarcoma cell line SJSA-1 (DAPI staining, In Cell Analyzer). The conditions noted are these: Homo sapiens, SJSA-1, 72 h, read-out: IC50 (nM), inhibitory activity on proliferation of human osteosarcoma cell line SJSA-1, SJSA-1, incubated 72 h.

T1 sequence (Q00987 whole entry): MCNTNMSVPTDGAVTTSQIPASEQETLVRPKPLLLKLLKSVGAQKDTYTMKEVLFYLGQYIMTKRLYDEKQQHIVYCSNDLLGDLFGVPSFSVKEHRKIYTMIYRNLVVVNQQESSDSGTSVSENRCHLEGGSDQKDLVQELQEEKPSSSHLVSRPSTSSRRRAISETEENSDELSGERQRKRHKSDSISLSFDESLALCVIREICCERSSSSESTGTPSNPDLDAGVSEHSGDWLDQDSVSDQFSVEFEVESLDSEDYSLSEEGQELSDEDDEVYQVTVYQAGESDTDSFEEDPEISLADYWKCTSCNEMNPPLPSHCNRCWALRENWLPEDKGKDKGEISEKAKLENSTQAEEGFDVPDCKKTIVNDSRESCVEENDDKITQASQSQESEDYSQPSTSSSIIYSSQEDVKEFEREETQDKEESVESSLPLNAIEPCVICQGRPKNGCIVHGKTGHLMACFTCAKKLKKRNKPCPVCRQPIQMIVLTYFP

Take `COc1cc(C(F)(F)F)ccc1-c1nc2c(n1C(C)C)[C@@]1(C(=O)Nc3cc(Cl)ccc31)N(c1cc(Cl)ccc1C)C2=O` [Example S-85, (S)-6-chloro-5′-(5-chloro-2-methylphenyl)-3′-isopropyl-2′-(2-methoxy-4-(trifluoromethyl)phenyl)-3′H-spiro[dihydroindole-3,4′-pyrrolo[3,4-d]imidazole]-2,6′(5′H)-dione]: the IC50 came out at 3.3 nM against MDM2 and 40.2 nM in experiment [1].

For the compound `COc1cc(C2CC2)ccc1-c1nc2c(n1C(C)C)[C@@]1(C(=O)Nc3cc(Cl)ccc31)N(c1cc(Cl)ccc1C)C2=O` [Example S-86, (S)-6-chloro-5′-(5-chloro-2-methylphenyl)-2′-(4-cyclopropyl-2-methoxyphenyl)-3′-isopropyl-3′H-spiro[dihydroindole-3,4′-pyrrolo[3,4-d]imidazole]-2,6′(5′H)-dione], the IC50 against MDM2 came out at 2.59 nM; in experiment [1], 21.2 nM.

For `COc1cc(OC(F)(F)F)ccc1-c1nc2c(n1C(C)C)[C@@]1(C(=O)Nc3cc(Cl)ccc31)N(c1cc(Cl)ccc1C)C2=O` [Example S-87, (S)-6-chloro-5′-(5-chloro-2-methylphenyl)-3′-isopropyl-2′-(2-methoxy-4-(trifluoromethoxy)phenyl)-3′H-spiro[dihydroindole-3,4′-pyrrolo[3,4-d]imidazole]-2,6′(5′H)-dione], the IC50 on MDM2 turned out to be 3.31 nM; in experiment [1], 11.1 nM.

With `CCOc1ccc(-c2nc3c(n2C(C)C)[C@@]2(C(=O)Nc4cc(Cl)ccc42)N(c2cc(Cl)ccc2C)C3=O)c(OC)c1` [Example S-88, (S)-6-chloro-5′-(5-chloro-2-methylphenyl)-2′-(4-ethoxy-2-methoxyphenyl)-3′-isopropyl-3′H-spiro[dihydroindole-3,4′-pyrrolo[3,4-d]imidazole]-2,6′(5′H)-dione], the IC50 against MDM2 turned out to be 2.34 nM; in experiment [1] it was 77.3 nM.

As to `COc1cc(C(C)C)ccc1-c1nc2c(n1C(C)C)[C@@]1(C(=O)Nc3cc(Cl)ccc31)N(c1cc(Cl)cnc1C)C2=O` [Example S-89, (S)-6-chloro-5′-(5-chloro-2-methylpyridin-3-yl)-3′-isopropyl-2′-(4-isopropyl-2-methoxyphenyl)-3′H-spiro[dihydroindole-3,4′-pyrrolo[3,4-d]imidazole]-2,6′(5′H)-dione], the IC50 was found to be 4.32 nM at MDM2 and 43.2 nM in experiment [1].

On to `COc1nc(N)ncc1-c1nc2c(n1C(C)C)[C@@]1(C(=O)Nc3cc(Cl)ccc31)N(c1cc(Cl)ccc1C)C2=O` [Example S-90, (S)-2′-(2-amino-4-methoxypyrimidin-5-yl)-6-chloro-5′-(5-chloro-2-methylphenyl)-3′-isopropyl-3′H-spiro[dihydroindole-3,4′-pyrrolo[3,4-d]imidazole]-2,6′(5′H)-dione], for which the IC50 against MDM2 was 1.38 nM; in experiment [1], 255 nM.

With `COc1cc(N(C)C)c(C)cc1-c1nc2c(n1C(C)C)[C@@]1(C(=O)Nc3cc(Cl)ccc31)N(c1cc(Cl)ccc1C)C2=O` [Example S-91, (S)-6-chloro-5′-(5-chloro-2-methylphenyl)-2′-(4-(dimethylamino)-2-methoxy-5-methylphenyl)-3′-isopropyl-3′H-spiro[dihydroindole-3,4′-pyrrolo[3,4-d]imidazole]-2,6′(5′H)-dione], the values for the IC50 (against MDM2; in experiment [1]) were 3.56 nM and 14.4 nM, respectively.

On to `COc1cc(OC)c(-c2nc3c(n2C(C)C)[C@@]2(C(=O)Nc4cc(Cl)ccc42)N(c2cc(Cl)ccc2C)C3=O)cc1F` [Example S-92, (S)-6-chloro-5′-(5-chloro-2-methylphenyl)-2′-(5-fluoro-2,4-dimethoxyphenyl)-3′-isopropyl-3′H-spiro[dihydroindole-3,4′-pyrrolo[3,4-d]imidazole]-2,6′(5′H)-dione], for which the IC50 against MDM2 worked out at 1.72 nM; in experiment [1], 19.9 nM.

In the case of `CCOc1ccc(-c2nc3c(n2C(C)C)[C@@]2(C(=O)Nc4cc(Cl)ccc42)N(c2cc(Cl)ccc2F)C3=O)c(OC)c1` [Example S-94, (S)-6-chloro-5′-(5-chloro-2-fluorophenyl)-2′-(4-ethoxy-2-methoxyphenyl)-3′-isopropyl-3′H-spiro[dihydroindole-3,4′-pyrrolo[3,4-d]imidazole]-2,6′(5′H)-dione], the IC50 turned out to be 4.72 nM against MDM2 and 309 nM in experiment [1].

`COc1cc(OC(C)C)ncc1-c1nc2c(n1C(C)C)[C@@]1(C(=O)Nc3cc(Cl)ccc31)N(c1cccc(Cl)c1)C2=O` [Example S-95, (S)-6-chloro-5′-(3-chlorophenyl)-2′-(6-isopropoxy-4-methoxypyridin-3-yl)-3′-isopropyl-3′H-spiro[dihydroindole-3,4′-pyrrolo[3,4-d]imidazole]-2,6′(5′H)-dione]: the results for the IC50 (against MDM2; in experiment [1]) were 1.92 nM and 49.5 nM, respectively.

For the compound `CCOc1ncc(-c2nc3c(n2C(C)C)[C@@]2(C(=O)Nc4cc(Cl)ccc42)N(c2cc(Cl)ccc2F)C3=O)c(OC)n1` [Example S-97, (S)-6-chloro-5′-(5-chloro-2-fluorophenyl)-2′-(2-ethoxy-4-methoxypyrimidin-5-yl)-3′-isopropyl-3′H-spiro[dihydroindole-3,4′-pyrrolo[3,4-d]imidazole]-2,6′(5′H)-dione], the IC50 amounted to 3.94 nM on MDM2 and 167 nM in experiment [1].

For `CCN(C)c1ccc(-c2nc3c(n2C(C)C)[C@@]2(C(=O)Nc4cc(Cl)ccc42)N(c2cc(Cl)ccc2C)C3=O)c(OC)c1` [Example S-99, (S)-6-chloro-5′-(5-chloro-2-methylphenyl)-2′-(4-(ethyl(methyl)amino)-2-methoxyphenyl)-3′-isopropyl-3′H-spiro[dihydroindole-3,4′-pyrrolo[3,4-d]imidazole]-2,6′(5′H)-dione], the IC50 at MDM2 was 2.56 nM; in experiment [1] it was 34.2 nM.

`CCOc1ccc(-c2nc3c(n2C(C)C)[C@@]2(C(=O)Nc4cc(Cl)ccc42)N(c2cccc(Cl)c2)C3=O)c(OC)c1` [Example S-100, (S)-6-chloro-5′-(3-chlorophenyl)-2′-(4-ethoxy-2-methoxyphenyl)-3′-isopropyl-3′H-spiro[dihydroindole-3,4′-pyrrolo[3,4-d]imidazole]-2,6′(5′H)-dione]: the figures for the IC50 (against MDM2; in experiment [1]) were 3.14 nM and 1210 nM, respectively.

As for `COc1cc(C(C)(C)C)ccc1-c1nc2c(n1C(C)C)[C@@]1(C(=O)Nc3cc(Cl)ccc31)N(c1cc(Cl)ccc1C)C2=O` [Example S-101, (S)-2′-(4-(tert-butyl)-2-methoxyphenyl)-6-chloro-5′-(5-chloro-2-methylphenyl)-3′-isopropyl-3′H-spiro[dihydroindole-3,4′-pyrrolo[3,4-d]imidazole]-2,6′(5′H)-dione], the IC50 came to 9.86 nM on MDM2 and 48.5 nM in experiment [1].

Take `CCOc1cc(OC)c(-c2nc3c(n2C(C)C)[C@@]2(C(=O)Nc4cc(Cl)ccc42)N(c2cccc(Cl)c2)C3=O)cn1` [Example S-102, (S)-6-chloro-5′-(3-chlorophenyl)-2′-(6-ethoxy-4-methoxypyridin-3-yl)-3′-isopropyl-3′H-spiro[dihydroindole-3,4′-pyrrolo[3,4-d]imidazole]-2,6′(5′H)-dione]: the figures for the IC50 (against MDM2; in experiment [1]) were 2.01 nM and 57.4 nM, respectively.

As to `COc1cc(N(C)C)ccc1-c1nc2c(n1C(C)C)[C@@]1(C(=O)Nc3cc(Cl)ccc31)N(c1cccc(Cl)c1)C2=O` [Example S-104, (S)-6-chloro-5′-(3-chlorophenyl)-2′-(4-(dimethylamino)-2-methoxyphenyl)-3′-isopropyl-3′H-spiro[dihydroindole-3,4′-pyrrolo[3,4-d]imidazole]-2,6′(5′H)-dione], the IC50 against MDM2 came out at 2.26 nM; in experiment [1], 266 nM.

Regarding `CCN(CC)c1ccc(-c2nc3c(n2C(C)C)[C@@]2(C(=O)Nc4cc(Cl)ccc42)N(c2cc(Cl)ccc2C)C3=O)c(OC)c1` [Example S-105, (S)-6-chloro-5′-(5-chloro-2-methylphenyl)-2′-(4-(diethylamino)-2-methoxyphenyl)-3′-isopropyl-3′H-spiro[dihydroindole-3,4′-pyrrolo[3,4-d]imidazole]-2,6′(5′H)-dione], the values for the IC50 (against MDM2; in experiment [1]) were 11.2 nM and 243 nM, respectively.

In the case of `COc1cc(C2CC2)ncc1-c1nc2c(n1C(C)C)[C@@]1(C(=O)Nc3cc(Cl)ccc31)N(c1cccc(Cl)c1)C2=O` [Example S-106, (S)-6-chloro-5′-(3-chlorophenyl)-2′-(6-cyclopropyl-4-methoxypyridin-3-yl)-3′-isopropyl-3′H-spiro[dihydroindole-3,4′-pyrrolo[3,4-d]imidazole]-2,6′(5′H)-dione], the values for the IC50 (on MDM2; in experiment [1]) were 2.59 nM and 33.5 nM, respectively.

Consider `CCc1ccc(-c2nc3c(n2C(C)C)[C@@]2(C(=O)Nc4cc(Cl)ccc42)N(c2cccc(Cl)c2)C3=O)c(OC)c1` [Example S-107, (S)-6-chloro-5′-(3-chlorophenyl)-2′-(4-ethyl-2-methoxyphenyl)-3′-isopropyl-3′H-spiro[dihydroindole-3,4′-pyrrolo[3,4-d]imidazole]-2,6′(5′H)-dione], for which the IC50 worked out at 4.55 nM at MDM2 and 115 nM in experiment [1].

As to `COc1cc(C2CC2)cc(OC)c1-c1nc2c(n1C(C)C)[C@@]1(C(=O)Nc3cc(Cl)ccc31)N(c1cc(Cl)ccc1C)C2=O` [Example S-108, (S)-6-chloro-5′-(5-chloro-2-methylphenyl)-2′-(4-cyclopropyl-2,6-dimethoxyphenyl)-3′-isopropyl-3′H-spiro[dihydroindole-3,4′-pyrrolo[3,4-d]imidazole]-2,6′(5′H)-dione], the IC50 on MDM2 came to 8.87 nM; in experiment [1] it was 28.8 nM.

`COc1cc(C)ccc1-c1nc2c(n1C(C)C)[C@@]1(C(=O)Nc3cc(Cl)ccc31)N(c1cccc(Cl)c1)C2=O` [Example S-109, (S)-6-chloro-5′-(3-chlorophenyl)-3′-isopropyl-2′-(2-methoxy-4-methylphenyl)-3′H-spiro[dihydroindole-3,4′-pyrrolo[3,4-d]imidazole]-2,6′(5′H)-dione]: the IC50 against MDM2 amounted to 2.34 nM; in experiment [1], 54.6 nM.
